Assay results: patent publication US12516053B2, “Bcl-2 inhibitors” (BEIGENE, LTD., priority 2019, dated 2026)
Where two headings read alike, the source gives them in different places.

What was measured:
[1] = system: RS4;11 (BCL-2 dependent acute lymphoblastic leukemia cell line); test: RS4;11 cell proliferation assay; format: cell-based; conditions: CellTiter-GLO, read-out: Cellular proliferation assay (IC50, nM) RS4
Protocol: RS4;11 Cell Proliferation Assay:
Each compound was serially diluted with 1 μM as the maximum concentration. To test the apoptotic effect of the compounds, the cells were seeded at 50,000 in 180 μl per well in 96-well plates and treated with 10-point dilution series of each compound for 48 hrs at 37° C. Cell viability was assessed after the treatment using CellTiter-GLO luminescent assay (Promega) according to the manufacturer's recommendations. Briefly, 30 μl of CellTiter-GLO reagent was added into 200 μl of cell culture, Mixture was agitated on an orbital shaker for 5 mins to ensure cell lysis followed by 7 mins incubation at room temperature to allow development and stabilization of luminescent signals, which corresponded to quantity of ATP and thus the quantity of metabolically active cells. Luminescent signals were measured using PHERAstar FS reader (BMG). Mean IC50 values for cell viability were determined with GraphPad Prism software.

[2] = system: Molt-4 (Bcl-xL-dependent ALL cell line); test: Molt-4 cell proliferation assay; format: cell-based; conditions: Homo sapiens, MOLT-4; CellTiter-GLO; read-out: Cellular proliferation assay (IC50, nM) Molt-4
Excerpt: Molt-4 Cell Proliferation Assay:
Each compound was serially diluted with 10 1M as the maximum concentration. The anti-proliferative IC50s of these compounds were similarly determined as a percentage of viable cells upon treatment compared to the untreated control using CellTiter-GLO luminescent assay.

[3] = target: Recombinant human Bcl-2 protein (Homo sapiens, UniProt P10415); test: Bcl-2 TR-FRET assay; format: binding
Protocol: Compounds disclosed herein were tested for blocking of Bcl-2 protein with its ligand in an assay based on Time-Resolved Fluorescence Resonance Energy Transfer (TR-FRET) methodology. Recombinant human 0.05 nM Bcl-2 protein was pre-incubated with a serial dilution of compounds disclosed herein (top final concentration is 1 uM or 0.1 uM or 0.02 uM or 0.01 uM, 10 points) at room temperature for 0.5 hour in an assay buffer containing 20 mM potassium phosphate buffer, pH 7.5, 50 mM NaCl, 1 mM EDTA, 0.05% Tween-20, 0.01% BSA. […] The inhibition percentage of Bcl-2 interaction with its ligand in presence of increasing concentrations of compounds was calculated based on the TR-FRET signals. The IC50 for each compound was derived from fitting the data to the four-parameter logistic equation by Graphpad Prism software or Dotmatics.

[4] = target: recombinant human Bcl-2-G101V protein (Homo sapiens, UniProt P10415, G101V); test: Bcl-2-G101V TR-FRET assay; format: binding
Excerpt: The IC50 for each compound was derived from fitting the data to the four-parameter logistic equation by Graphpad Prism software or Dotmatics.

[5] = target: BA/F3-BCL-2 cells (Homo sapiens, UniProt P10415); test: BA/F3 cell proliferation assay, BCL-2 wild type; format: cell-based, Murine
Protocol: (§1) BA/F3 cell Proliferation Assay:
(§2) The cells were treated with a 10-point dilution series of compounds for 24 hrs. After the compound treatment, 30 μl of CellTiter-Glo reagent was added in each well. The effects on proliferation were determined using Cell TiterGlo reagent (Promega) according to the manufacturer's instructions. Luminescent signals were measured using PHERAstar FS plate reader (BMG Labtech). ICS50 values for cell viability were determined with GraphPad Prism software and were the geometric mean of 3 independent experiments.

[6] = target: BA/F3-BCL-2 G101V cells (Homo sapiens, UniProt P10415, G101V, cells depend on it); test: BA/F3 cell proliferation assay, Bcl-2 G101V; format: cell-based, Murine; conditions: 24 hrs treatment, 3% FBS, CellTiter-Glo, geometric mean of 3 experiments; read-out: Cellular proliferation assay (IC50, nM) Bcl-2 G101V; BaF3 cell
Protocol: as §1, §2

[7] = Homo sapiens, RS4-11, 48 hrs treatment
[8] = TR-FRET, 0.05 nM Bcl-2, FITC labeled Bak peptide 0.5 nM, read-out: Biochemical assay (IC50, nM) Bcl-2 WT
[9] = TR-FRET, 0.1 nM Bcl-2-G101V, FITC labeled Bak peptide 5 nM, read-out: Biochemical assay (IC50, nM) Bcl-2 G101V
[10] = 24 hrs treatment, 3% FBS, CellTiter-Glo, geometric mean of 3 experiments; read-out: Cellular proliferation assay (IC50, nM) Bcl-2 WT; BaF3 cell

SMILES | IC50 [1, 7] | IC50 [2] | GI50 [6] | IC50 [3, 8] | IC50 [4, 9] | IC50 [5, 10] | IC50 ([1]; 48 hrs treatment) | IC50 [3] | IC50 [4] | IC50 ([5]; read-out: Cellular proliferation assay (IC50, nM) Bcl-2 WT; BaF3 cell; 24 hrs treatment, 3% FBS, CellTiter-Glo, geometric mean of 3 experiments)
CC1(C)CCC(CN2CCN(c3ccc(C(=O)NS(=O)(=O)c4ccc(NCC5CCOCC5)c([N+](=O)[O-])c4)c(Oc4cnc5[nH]ccc5c4)c3)CC2)=C(c2ccc(Cl)cc2)C1 [ABT-199, Venetoclax, reference compound] | 4.2 nM | 2570 nM | – | – | – | – | – | – | – | –
[2H]C1([2H])CC2(CC(N3CCC[C@H]3c3ccccc3C(C)C)C2)CC([2H])([2H])N1c1ccc(C(=O)NS(=O)(=O)c2cc3c(c([N+](=O)[O-])c2)N[C@H](C[C@H]2CC[C@H](O)CC2)CO3)c(Oc2cnc3[nH]ccc3c2)c1 [Example A6, 2-((1H-pyrrolo[2,3-b]pyridin-5-yl)oxy)-N—(((R)-3-(((1r,4R)-4-hydroxycyclohexyl)methyl)-5-nitro-3,4-dihydro-2H-benzo[b][1,4]oxazin-7-yl)sulfonyl)-4-(2-((S)-2-(2-isopropylphenyl)pyrrolidin-1-yl)-7-azaspiro[3,5]nonan-7-yl-6,6,8,8-d4)benzamide] | 1.3 nM | – | 21.1 nM | – | – | – | – | 0.021 nM | 0.51 nM | 0.25 nM
[2H]C1([2H])CCC([2H])(c2ccccc2C(C)C)N1C1CC2(CCN(c3ccc(C(=O)NS(=O)(=O)c4cc5c(c([N+](=O)[O-])c4)N[C@H](C[C@H]4CC[C@H](O)CC4)CO5)c(Oc4cnc5[nH]ccc5c4)c3)CC2)C1 (stereo partly drawn) [Example A7, 2-((1H-pyrrolo[2,3-b]pyridin-5-yl)oxy)-N—(((R)-3-(((1r,4R)-4-hydroxycyclohexyl)methyl)-5-nitro-3,4-dihydro-2H-benzo[b][1,4]oxazin-7-yl)sulfonyl)-4-(2-(2-(2-isopropylphenyl)pyrrolidin-1-yl-2,5,5-d3)-7-azaspiro[3,5]nonan-7-v)benzamide] | 1.5 nM | – | 35.8 nM | 0.021 nM | 0.92 nM | 0.38 nM | – | – | – | –
CC(C)c1ccccc1[C@@H]1CCCN1C1CC2(CCN(c3ccc(C(=O)NS(=O)(=O)c4ccc(NCC5(F)CCOCC5)c([N+](=O)[O-])c4)c(N4CCOc5nc6[nH]ccc6cc54)c3)CC2)C1 [Example B4, (S)-2-(2,3-dihydropyrrolo[3′,2′:5,6]pyrido[2,3-b][1,4]oxazin-1(6H)-yl)-N-((4-(((4-fluorotetrahydro-2H-pyran-4-yl)methyl)amino)-3-nitrophenyl)sulfonyl)-4-(2-(2-(2-isopropylphenyl)pyrrolidin-1-yl)-7-azaspiro[3,5]nonan-7-yl)benzamide] | 0.58 nM | 1420 nM | – | 0.018 nM | 1.2 nM | – | – | – | – | –
CC(C)c1ccccc1[C@@H]1CCCN1C1CC2(CCN(c3ccc(C(=O)NS(=O)(=O)c4ccc(NC[C@H]5CC[C@](C)(O)CC5)c([N+](=O)[O-])c4)c(N4c5cc6cc[nH]c6nc5OCC4C)c3)CC2)C1 (stereo partly drawn) [Example B10, N-((4-((((1R,4R)-4-hydroxy-4-methylcyclohexyl)methyl)amino)-3-nitrophenyl)sulfonyl)-4-(2-((S)-2-(2-isopropylphenyl)pyrrolidin-1-yl)-7-azaspiro[3,5]nonan-7-yl)-2-(2-methyl-2,3-dihydropyrrolo[3′2′:5,6]pyrido[2,3-b][1,4]oxazin-1(6H)-yl)benzamide] | 1 nM | > 10000 nM | – | 0.04 nM | 1.6 nM | – | – | – | – | –

The next lines start with results.

IC50 [1, 7] | IC50 [2] | GI50 [6] | IC50 [3, 8] | IC50 [4, 9] | IC50 [5, 10] | IC50 ([1]; 48 hrs treatment) | SMILES | IC50 [3] | IC50 [4] | IC50 ([5]; read-out: Cellular proliferation assay (IC50, nM) Bcl-2 WT; BaF3 cell; 24 hrs treatment, 3% FBS, CellTiter-Glo, geometric mean of 3 experiments)
1 nM | – | 8.9 nM | 0.025 nM | 1.1 nM | 0.13 nM | – | CC(C)c1ccccc1[C@@H]1CCCN1C1CC2(CCN(c3ccc(C(=O)NS(=O)(=O)c4ccc(NC[C@H]5CC[C@](C)(O)CC5)c([N+](=O)[O-])c4)c(N4C[C@@H](C)Oc5nc6[nH]ccc6cc54)c3)CC2)C1 [Example B5, N-((4-((((1r,4r)-4-hydroxy-4-methylcyclohexyl)methyl)amino)-3-nitrophenyl)sulfonyl)-4-(2-((S)-2-(2-isopropylphenyl)pyrrolidin-1-yl)-7-azaspiro[3,5]nonan-7-yl)-2-((R)-3-methyl-2,3-dihydropyrrolo[3′,2′:5,6]pyrido[2,3-b][1,4]oxazin-1(6H)-yl)benzamide] | – | – | –
0.34 nM | – | 31.9 nM | 0.027 nM | 1.2 nM | 1.1 nM | – | CC(C)c1ccccc1[C@@H]1CCCN1C1CC2(CCN(c3ccc(C(=O)NS(=O)(=O)c4ccc(NC[C@H]5CC[C@](C)(O)CC5)c([N+](=O)[O-])c4)c(N4C[C@H](C)Oc5nc6[nH]ccc6cc54)c3)CC2)C1 [Example B6, N-((4-((((1r,4r)-4-hydroxy-4-methylcyclohexyl)methyl)amino)-3-nitrophenyl)sulfonyl)-4-(2-((S)-2-(2-isopropylphenyl)pyrrolidin-1-yl)-7-azaspiro[3,5]nonan-7-yl)-2-((S)-3-methyl-2,3-dihydropyrrolo[3′,2′:5,6]pyrido[2,3-b][1,4]oxazin-1(6H)-yl)benzamide] | – | – | –
0.8 nM | – | 11.2 nM | 0.048 nM | 1.5 nM | 0.18 nM | – | CC(C)c1ccccc1[C@@H]1CCCN1C1CC2(CCN(c3ccc(C(=O)NS(=O)(=O)c4cc5c(c([N+](=O)[O-])c4)N[C@H](C[C@H]4CC[C@H](O)CC4)CO5)c(N4C[C@@H](C)Oc5nc6[nH]ccc6cc54)c3)CC2)C1 [Example B7, N—(((R)-3-(((1r,4R)-4-hydroxycyclohexyl)methyl)-5-nitro-3,4-dihydro-2H-benzo[b][1,4]oxazin-7-yl)sulfonyl)-4-(2-((S)-2-(2-isopropylphenyl)pyrrolidin-1-yl)-7-azaspiro[3,5]nonan-7-yl)-2-((R)-3-methyl-2,3-dihydropyrrolo[3′,2′:5,6]pyrido[2,3-b][1,4]oxazin-1(6H)-yl)benzamide] | – | – | –
– | – | 41.2 nM | 0.055 nM | 3.3 nM | 0.65 nM | 0.7 nM | CC(C)c1ccccc1[C@@H]1CCCN1C1CC2(CCN(c3ccc(C(=O)NS(=O)(=O)c4cc5c(c([N+](=O)[O-])c4)N[C@H](CC4CCC(O)CC4)CO5)c(N4C[C@H](C)Oc5nc6[nH]ccc6cc54)c3)CC2)C1 (stereo partly drawn) [Example B8, N—(((R)-3-(((1r,4R)-4-hydroxycyclohexyl)methyl)-5-nitro-3,4-dihydro-2H-benzo[b][1,4]oxazin-7-yl)sulfonyl)-4-(2-((S)-2-(2-isopropylphenyl)pyrrolidin-1-yl)-7-azaspiro[3,5]nonan-7-yl)-2-((S)-3-methyl-2,3-dihydropyrrolo[3′,2′:5,6]pyrido[2,3-b][1,4]oxazin-1(6H)-yl)benzamide] | – | – | –
0.5 nM | – | 34.9 nM | 0.038 nM | 3.3 nM | 0.83 nM | – | CC(C)c1ccccc1[C@@H]1CCCN1C1CC2(CCN(c3ccc(C(=O)NS(=O)(=O)c4cc5c(c([N+](=O)[O-])c4)N[C@H](C[C@H]4CC[C@H](O)CC4)CO5)c(N4CCCOc5nc6[nH]ccc6cc54)c3)CC2)C1 [Example B9, 2-(3,4-dihydro-2H-pyrrolo[3′,2′:5,6]pyrido[2,3-b][1,4]oxazepin-1(7H)-yl)-N—(((R)-3-(((1R,4R)-4-hydroxycyclohexyl)methyl)-5-nitro-3,4-dihydro-2H-benzo[b][1,4]oxazin-7-yl)sulfonyl)-4-(2-((S)-2-(2-isopropylphenyl)pyrrolidin-1-yl)-7-azaspiro[3,5]nonan-7-yl)benzamide] | – | – | –
